Patent publication US8415351B2 (priority 2007, dated 2013)
Where two headings read alike, the source gives them in different places.

Tests used:
[1] = molecular target: T1, HCV polymerase 1A (Δ21 NS5B, H77) (Hepatitis C virus genotype 1a, UniProt P27958); experiment: biochemical
T1 construct: 20 to 50 nM Δ21 NS5B
Method: (§1) HCV Polymerase Inhibition Assay
The reaction was initiated by the addition of 20 μM CTP, 20 μM ATP, 1 μM ^3H-UTP (10 mCi/umol), 5 nM template RNA and 0.1 U/μl RNase inhibitor (RNasin, Promega), and allowed to proceed for 2 to 4 h at room temperature. Reaction volume was 50 μl. The reaction was terminated by the addition of 1 volume of 4 mM spermine in 10 mM Tris-Cl pH 8.0, 1 mM EDTA. After incubation for at least 15 min at room temperature, the precipitated RNA was captured by filtering through a GF/B filter (Millipore) in a 96 well format. The filter plate was washed three times with 200 μl each of 2 mM spermine, 10 mM Tris-Cl pH 8.0, 1 mM EDTA, and 2 times with ethanol. After air-drying, 30 μl of Microscint 20 scintillation cocktail (Packard) was added to each well, and the retained cpm were determined by scintillation counting. […] Retained cpm were plotted vs. inhibitor concentration and fit to equation 1 using non-linear regression (ref. 1) to obtain the IC50 values: Retained cpm=A[sqrt{(IC50+It−Et)^2+4*IC50*Et}−(IC50+It−Et)]
Ref. Morrison, J. F. and S. R. Stone. […] Approaches to the study and analysis of the inhibition of enzymes by slow- and tight-binding inhibitors. Comments Mol. Cell. Biophys.
The sequence of the template RNA used was: 5′-[…]

[2] = molecular target: T2, HCV polymerase 1B (Δ21 NS5B, BK) (Hepatitis C virus genotype 1b, UniProt P26663); experiment: biochemical
T2 construct: 20 to 50 nM Δ21 NS5B
Method: as §1
Either two-fold serial dilutions (fractional inhibition assay) or a narrower range of dilutions spanning the IC50 of the inhibitor (tight binding assay) of the inhibitors were incubated with 20 mM Tris-Cl pH 7.4, 2 mM MnCl2, 1 mM dithiothreitol, 1 mM ethylene diamine tetraacetic acid (EDTA), 60 to 125 μM GTP and 20 to 50 nM Δ21 NS5B (HCV Strain 1B (BK, Genbank accession number M58335, or H77, Genbank accession number AF011751)) for 15 min at room temperature. The reaction was initiated by the addition of 20 μM CTP, 20 μM ATP, 1 μM ^3H-UTP (10 mCi/umol), 5 nM template RNA and 0.1 U/μl RNase inhibitor (RNasin, Promega), and allowed to proceed for 2 to 4 h at room temperature. Reaction volume was 50 μl. The reaction was terminated by the addition of 1 volume of 4 mM spermine in 10 mM Tris-Cl pH 8.0, 1 mM EDTA. After incubation for at least 15 min at room temperature, the precipitated RNA was captured by filtering through a GF/B filter (Millipore) in a 96 well format. The filter plate was washed three times with 200 μl each of 2 mM spermine, 10 mM Tris-Cl pH 8.0, 1 mM EDTA, and 2 times with ethanol. After air-drying, 30 μl of Microscint 20 scintillation cocktail (Packard) was added to each well, and the retained cpm were determined by scintillation counting. […] Retained cpm were plotted vs. inhibitor concentration and fit to equation 1 using non-linear regression (ref. 1) to obtain the IC50 values: Retained cpm=A[sqrt{(IC50+It−Et)^2+4*IC50*Et}−(IC50+It−Et)]
Ref. Morrison, J. F. and S. R. Stone. 1985. Approaches to the study and analysis of the inhibition of enzymes by slow- and tight-binding inhibitors. Comments Mol. Cell. Biophys. 2: 347-368.
The sequence of the template RNA used was: 5′-[…] […] […] […] […] […] […] […] […] […] […] […] […] […] […] […] […]-3′ (SEQ ID NO: 1)

T2 sequence (P26663 2420-2989, stated change not applied): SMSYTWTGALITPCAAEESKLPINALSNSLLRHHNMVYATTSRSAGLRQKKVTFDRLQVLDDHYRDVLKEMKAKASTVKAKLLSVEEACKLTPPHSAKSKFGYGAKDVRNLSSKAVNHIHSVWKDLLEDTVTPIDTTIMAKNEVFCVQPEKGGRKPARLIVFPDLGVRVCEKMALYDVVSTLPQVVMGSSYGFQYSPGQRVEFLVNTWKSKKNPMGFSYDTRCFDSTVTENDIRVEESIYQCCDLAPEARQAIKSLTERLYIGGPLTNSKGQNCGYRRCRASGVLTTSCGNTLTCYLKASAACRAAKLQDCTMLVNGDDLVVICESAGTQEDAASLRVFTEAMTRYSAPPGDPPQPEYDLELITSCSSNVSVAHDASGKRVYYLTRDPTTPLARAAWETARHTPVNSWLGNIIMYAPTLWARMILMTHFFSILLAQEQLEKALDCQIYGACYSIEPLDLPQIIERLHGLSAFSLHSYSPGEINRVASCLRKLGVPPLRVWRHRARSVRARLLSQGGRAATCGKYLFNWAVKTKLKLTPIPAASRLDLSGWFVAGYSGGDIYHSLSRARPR
T1 sequence (P27958 2421-2990, stated change not applied): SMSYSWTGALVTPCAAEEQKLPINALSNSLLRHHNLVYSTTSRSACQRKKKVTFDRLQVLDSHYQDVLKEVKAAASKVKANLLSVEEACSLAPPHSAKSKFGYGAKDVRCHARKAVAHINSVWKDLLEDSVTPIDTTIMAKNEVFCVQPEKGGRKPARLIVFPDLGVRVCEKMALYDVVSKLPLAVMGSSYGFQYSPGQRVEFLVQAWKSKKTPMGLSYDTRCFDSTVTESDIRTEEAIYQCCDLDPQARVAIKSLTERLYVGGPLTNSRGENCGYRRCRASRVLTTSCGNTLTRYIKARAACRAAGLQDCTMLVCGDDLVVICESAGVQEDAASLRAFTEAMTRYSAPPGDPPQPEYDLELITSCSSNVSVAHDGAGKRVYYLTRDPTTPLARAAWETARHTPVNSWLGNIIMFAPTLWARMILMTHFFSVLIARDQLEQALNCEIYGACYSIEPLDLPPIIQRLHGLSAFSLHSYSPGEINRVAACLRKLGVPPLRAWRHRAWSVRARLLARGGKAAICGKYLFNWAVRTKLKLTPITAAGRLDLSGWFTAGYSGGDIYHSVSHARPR

| SMILES | IC50 ([1]; IC50 1a) [nM] | IC50 [2] [nM] | IC50 ([1]; read-out: IC50 1a) [nM] | IC50 ([2]; HCV polymerase 1b, read-out: IC50 1b) [nM] |
| --- | --- | --- | --- | --- |
| COc1c(C(=O)Nc2ccc(NS(C)(=O)=O)cc2)cc(N2CCC(=O)N(CC3OCCO3)C2=O)cc1C(C)(C)C [IA-L3-1.117, 5-(3-((1,3-dioxolan-2-yl)methyl)-2,4-dioxotetrahydropyrimidin-1(2H)-yl)-3-tert-butyl-2-methoxy-N-(4-(methylsulfonamido)phenyl)benzamide] | > 1000 | > 1000 | – | – |
| C=CCN1C(=O)CCN(c2cc(C(=O)Nc3ccc(N(CC=C)S(C)(=O)=O)cc3)c(OC)c(C(C)(C)C)c2)C1=O [IA-L3-1.118, 5-(3-allyl-2,4-dioxotetrahydropyrimidin-1(2H)-yl)-N-(4-(N-allylmethylsulfonamido)phenyl)-3-tert-butyl-2-methoxybenzamide] | > 1000 | > 1000 | – | – |
| COc1c(C(=O)Nc2ccc3c(c2)CS(=O)(=O)C3)cc(N2CCC(=O)NC2=O)cc1C(C)(C)C [IA-L3-2.3, 3-tert-butyl-N-(2,2-dioxo-1,3-dihydrobenzo[c]thiophen-5-yl)-5-(2,4-dioxotetrahydropyrimidin-1(2H)-yl)-2-methoxybenzamide] | > 1000 | > 1000 | – | – |
| CC(C)(C)c1cc(N2CCC(=O)NC2=O)cc(NC(=O)c2ccccc2)c1O [IA-L4-1.2, N-(3-tert-butyl-5-(2,4-dioxotetrahydropyrimidin-1(2H)-yl)-2-hydroxyphenyl)benzamide] | > 1000 | > 1000 | – | – |
| CC(C)(C)c1cc(N2CCC(=O)NC2=O)cc(NC(=O)c2ccc([N+](=O)[O-])cc2)c1O [IA-L4-1.5, N-(3-tert-butyl-5-(2,4-dioxotetrahydropyrimidin-1(2H)-yl)-2-hydroxyphenyl)-4-nitro benzamide] | – | – | > 1000 | > 1000 |
| CC(C)(C)c1cc(N2CCC(=O)NC2=O)cc(NC(=O)c2ccc(N)cc2)c1O [IA-L4-1.6, 4-amino-N-(3-tert-butyl-5-(2,4-dioxotetrahydropyrimidin-1(2H)-yl)-2-hydroxyphenyl)benzamide] | > 1000 | > 1000 | – | – |
| COc1c(NC(=O)c2ccc(CS(C)(=O)=O)cc2)cc(N2CCC(=O)NC2=O)cc1C(C)(C)C [IA-L4-1.10, N-(3-tert-butyl-5-(2,4-dioxotetrahydropyrimidin-1(2H)-yl)-2-methoxyphenyl)-4-(methylsulfonylmethyl)benzamide] | > 1000 | > 1000 | – | – |
| CC(C)(C)OC(=O)NC1CCN(Cc2cc(N3CCC(=O)NC3=O)cc(C(C)(C)C)c2O)CC1 [IA-L5-1-1.1, {1-[3-tert-butyl-5-(2,4-dioxo-tetrahydro-pyrimidin-1-yl)-2-hydroxy-benzyl]-piperidin-4-yl}-carbamic acid tert-butyl ester] | > 1000 | > 1000 | – | – |
| CC(C)(C)c1cc(N2CCC(=O)NC2=O)cc(CN2CCCC(CNS(C)(=O)=O)C2)c1O (stereo not drawn) [IA-L5-1-1.2, N-{1-[3-tert-butyl-5-(2,4-dioxo-tetrahydro-pyrimidin-1-yl)-2-hydroxy-benzyl]-piperidin-3-ylmethyl}-methanesulfonamide] | > 1000 | > 1000 | – | – |
| CCOC(=O)C1CCCN(Cc2cc(N3CCC(=O)NC3=O)cc(C(C)(C)C)c2O)C1 (stereo not drawn) [IA-L5-1-1.3, 1-[3-tert-butyl-5-(2,4-dioxo-tetrahydro-pyrimidin-1-yl)-2-hydroxy-benzyl]-piperidine-3-carboxylic acid ethyl ester] | > 1000 | > 1000 | – | – |
| CC1CCCN(Cc2cc(N3CCC(=O)NC3=O)cc(C(C)(C)C)c2O)C1 (stereo not drawn) [IA-L5-1-1.4, 1-[3-tert-butyl-4-hydroxy-5-(3-methyl-piperidin-1-ylmethyl)-phenyl]-dihydro-pyrimidine-2,4-dione; compound with trifluoroacetic acid] | > 1000 | > 1000 | – | – |
| COC(=O)C1CCN(Cc2cc(N3CCC(=O)NC3=O)cc(C(C)(C)C)c2O)CC1 [IA-L5-1-1.5, 1-[3-tert-butyl-5-(2,4-dioxo-tetrahydro-pyrimidin-1-yl)-2-hydroxy-benzyl]-piperidine-4-carboxylic acid methyl ester] | > 1000 | > 1000 | – | – |
